Data: patent US9872824B2, “Semi-permanent hair straightening composition and method” (Lubrizol Advanced Materials, Inc., priority 2013, dated 2018)

Experiments:
[1] = Solution dipping, flat-iron thermal straightening, imaging analysis of tress length and width; parameters: species or system human; settings: for Comparative straightening behaviour in words: imaging analysis data; for Ranking for semi-permanent thermal straightening efficiency: from imaging analysis data
Protocol: (§1) This method is used primarily to screen and select candidate molecules as possible thermally-activated agents. Typically, a solution of the candidate molecule is prepared in a suitable solvent system. The hair-tress is immersed completely in the solution with controlled concentration of candidate thermally-activated agent, pH, temperature and soaking time, such as for up to 60 minutes. Then, the hair-tress is removed from the solution, excess amount of material squeezed out, and the tress is blow-dried to at least 95% dryness before thermal straightening.
2. Image Analysis: the method can be used to quantify the curly hair-tress thermal straightening efficiency for different treatments. Measurements of tress length and width at half-length can be made with this method.
As for other tests, a curly hair-tress was completely immersed in an aqueous solution of a selected one of the small molecules and soaked for 45 minutes. Each solution contained an equimolar amount of the selected small molecule. The hair-tress was then removed from the solution, excess water was squeezed out manually, and the hair dried by a blower dryer to the desired dryness before thermal straightening, as described above.
The imaging analysis method was used to measure the total length and width of the hair-tress before and after the thermal straightening process, and after each shampoo-wash-cycle. More specifically, photographs of hair tresses or bundles of hair tresses were taken against a solid color background with a tripod-mounted digital camera. Illumination was selected to minimize shadows which could affect measurements. The tress was hung from a spindle that enabled the tress to be rotated 90 degrees so that pictures could be taken from four different angles, providing a full view of the tress, with a ruler mounted close to the tress as a scale.
The National Institutes for Health's Image J software program was used for image processing and analysis. […] The curly hair-tress has a contour length of 20 cm, and the top glued part is 2.0 cm wide and is about 0.4 cm of length. Therefore, the effective hair-tress contour length is 19.6 cm.

[2] = Solution-dipping screening, flat-iron straightening, shampoo-wash-fastness; parameters: species or system human; settings: used alone under the same conditions
Protocol: as §1
The shampoo-wash-fastness is carried out by applying shampoo (VO5 or Suave shampoo) on the hair-tress which is massaged for 30 seconds followed by rinsing for 60 seconds with running warm water (32-35° C.). The washed hair-tress is then dried at 23° C. and 50% RH. Consecutive shampoo-wash-cycles are carried out without the drying step.
In the following initial screening test, the examination of thermally straightened hair-tresses is performed by visually examining a tress which has been treated in a solution containing up to 30 wt. % of a candidate thermally-activated agent for 45 minutes, flat-ironed at 210° C. (10×12 seconds). After three consecutive wash cycles, if the dried hair-tress (23° C. and 50% RH) becomes curly, this material is considered not effective, i.e. not worth a further evaluation in a cream formulation.

[3] = Solubility in water at room temperature; format: physicochemical; settings: room temperature (25° C.)
[4] = average over 1-24 shampoos after thermal treatment
[5] = thermally-treated tress, equimolar aqueous solution, 45 min soak
[6] = thermally-treated tress, width at half-length

Solubility in water [3] | Structure (SMILES) | Front: Width1/2 [1, 4] | Lengthmax [1, 4] | Side: Width1/2 [1, 4] | Comparative straightening behaviour in words [1] | Lengthmax [1, 5] | Front: Width1/2 [1, 6] | Side: Width1/2 [1, 6] | Ranking for semi-permanent thermal straightening efficiency [1] | Straightening effectiveness relative to ethylene carbonate [2]
 | O=C1OCCO1 [EC, ethylene carbonate] | 2.6 ± 0.1 cm | 19.4 ± 0.1 cm | 1.5 ± 0.1 cm | behave similarly to formaldehyde (F) and glyoxylic acid (GA) | 19.4 cm | 3.6 cm | 0.9 cm |  | 
 | O=C1NCCN1 [EU, Ethylene Urea] | 4.1 ± 0.2 cm | 18.2 ± 0.2 cm | 2.6 ± 0.1 cm | relax the curly hair-tress to some degree | 19.4 cm | 3.2 cm | 1.6 cm | GA≈EC≈F≧TC>O>EU>U | 
 | O=CC(=O)O [GA, Glyoxylic Acid] | 2.5 ± 0.5 cm | 19.2 ± 0.3 cm | 1.4 ± 0.2 cm |  | 19.5 cm | 2.8 cm | 1.2 cm | GA≈EC≈F≧TC>O>EU>U | 
 | O=C1OCC(CO)O1 (centres unmarked) [GC, glycerol carbonate] |  |  |  |  |  |  |  |  | less effective
 | O=C1NCCO1 [O, 2-oxazolidinone] | 3.9 ± 0.2 cm | 18.4 ± 0.1 cm | 2.7 ± 0.2 cm | gives better straightening results than urea (U) and ethylene urea (EU) | 19.3 cm | 3.3 cm | 1.7 cm | GA≈EC≈F≧TC>O>EU>U | 
up to 20 wt. % | CC1COC(=O)O1 (centres unmarked) [PC, propylene carbonate] |  |  |  |  |  |  |  |  | less effective
 | NC(N)=O [U, Urea] | 5.8 ± 0.2 cm | 18.2 ± 0.2 cm | 4.0 ± 0.4 cm | relax the curly hair-tress to some degree | 19.6 cm | 3.6 cm | 2.0 cm | GA≈EC≈F≧TC>O>EU>U | 
